# Earlier results as cited in publication PMC7993281 (Clinical and Translational Science, 2020).
# Test system: plasma GlcCer
# Details: healthy subjects; cited from earlier work
smiles,measurement,value
CC(C)(NC(=O)O[C@@H]1CN2CCC1CC2)c1csc(-c2ccc(F)cc2)n1 [venglustat],decrease of plasma GlcCer,up to 80%
